In PMC5218480 (PLoS ONE, 2017):

System: MV-4-11 cells
Experiment: Gene expression microarray analysis (Affymetrix PrimeView) and GSEA
Format: cell-based, human
Parameters: RFU PODN (11730768_x_at) / Fold change /veh PODN (11730768_x_at) / RFU LINC00158 (11744669_a_at) / Fold change /veh LINC00158 (11744669_a_at) / RFU DUSP10 (11751237_a_at) / Fold change /veh DUSP10 (11751237_a_at) / RFU ID3 (11757404_x_at) / Fold change /veh ID3 (11757404_x_at) / RFU PLEKHG5 (11737974_s_at) / Fold change /veh PLEKHG5 (11737974_s_at) / RFU LRRC4B (11730491_at) / Fold change /veh LRRC4B (11730491_at) / RFU GIMAP4 (11747438_a_at) / Fold change /veh GIMAP4 (11747438_a_at) / RFU KRT8 (11758183_x_at) / Fold change /veh KRT8 (11758183_x_at) / RFU CNN1 (11734310_a_at) / Fold change /veh CNN1 (11734310_a_at) / RFU VPS37D (11726825_at) / Fold change /veh VPS37D (11726825_at) / RFU C10orf10 (11716522_x_at) / Fold change /veh C10orf10 (11716522_x_at) / RFU KIR2DL2 /// KIR2DL4 /// KIR2DL5A /// KIR2DL5B /// KIR2DS1 /// KIR2DS2 /// KIR2DS3 /// KIR2DS4 /// KIR3DL3 /// KIR3DL3 /// KIR3DS1 (11738374_at) / Fold change /veh KIR2DL2 /// KIR2DL4 /// KIR2DL5A /// KIR2DL5B /// KIR2DS1 /// KIR2DS2 /// KIR2DS3 /// KIR2DS4 /// KIR3DL3 /// KIR3DL3 /// KIR3DS1 (11738374_at) / RFU C1QL1 (11718748_at) / Fold change /veh C1QL1 (11718748_at) / RFU TMPRSS4 (11747572_a_at) / Fold change /veh TMPRSS4 (11747572_a_at) / RFU HAMP (11756126_x_at) / Fold change /veh HAMP (11756126_x_at) / RFU RNFT2 (11725882_a_at) / Fold change /veh RNFT2 (11725882_a_at) / RFU NR4A2 (11747474_a_at) / Fold change /veh NR4A2 (11747474_a_at) / RFU ABCC12 (11746883_a_at) / Fold change /veh ABCC12 (11746883_a_at) / RFU TMEM136 (11760407_x_at) / Fold change /veh TMEM136 (11760407_x_at) / RFU CLDN22 /// WWC2 (11732394_at) / Fold change /veh CLDN22 /// WWC2 (11732394_at) / RFU HLA-DPB1 (11760878_x_at) / Fold change /veh HLA-DPB1 (11760878_x_at) / RFU SPINT1 (11716480_a_at) / Fold change /veh SPINT1 (11716480_a_at) / RFU GAP43 (11754022_s_at) / Fold change /veh GAP43 (11754022_s_at) / RFU A4GNT (11735810_at) / Fold change /veh A4GNT (11735810_at) / RFU PRB3 (11715151_x_at) / Fold change /veh PRB3 (11715151_x_at) / RFU TUBB4B (11761932_at) / Fold change /veh TUBB4B (11761932_at) / RFU CAPN14 (11732068_a_at) / Fold change /veh CAPN14 (11732068_a_at) / RFU TMCC2 (11721928_a_at) / Fold change /veh TMCC2 (11721928_a_at) / RFU IRGQ (11745062_a_at) / Fold change /veh IRGQ (11745062_a_at) / RFU FAM174B (11720279_a_at) / Fold change /veh FAM174B (11720279_a_at) / RFU TMPRSS4 (11748680_a_at) / Fold change /veh TMPRSS4 (11748680_a_at) / RFU FAM212B (11763350_a_at) / Fold change /veh FAM212B (11763350_a_at) / RFU PLEKHG5 (11743358_a_at) / Fold change /veh PLEKHG5 (11743358_a_at) / RFU ZSCAN30 (11745921_a_at) / Fold change /veh ZSCAN30 (11745921_a_at) / RFU CMKLR1 (11741424_a_at) / Fold change /veh CMKLR1 (11741424_a_at) / RFU LOC101060620 /// MAPK8IP1 (11723275_at) / Fold change /veh LOC101060620 /// MAPK8IP1 (11723275_at) / RFU SPTSSB (11747773_x_at) / Fold change /veh SPTSSB (11747773_x_at) / RFU PRSS12 (11739890_at) / Fold change /veh PRSS12 (11739890_at) / RFU BIN1 (11741810_x_at) / Fold change /veh BIN1 (11741810_x_at) / RFU WNT11 (11732464_a_at) / Fold change /veh WNT11 (11732464_a_at) / RFU C10orf10 (11716521_a_at) / Fold change /veh C10orf10 (11716521_a_at) / RFU C5orf56 (11738089_at) / Fold change /veh C5orf56 (11738089_at) / RFU CYB561 (11721691_x_at) / Fold change /veh CYB561 (11721691_x_at) / RFU ANKRD19P (11752326_a_at) / Fold change /veh ANKRD19P (11752326_a_at) / RFU OR2T12 /// OR2T33 /// OR2T8 (11738714_s_at) / Fold change /veh OR2T12 /// OR2T33 /// OR2T8 (11738714_s_at) / RFU VCAN (11748164_a_at) / Fold change /veh VCAN (11748164_a_at) / RFU JSRP1 (11732532_at) / Fold change /veh JSRP1 (11732532_at) / RFU KRTAP10-11 (11738290_x_at) / Fold change /veh KRTAP10-11 (11738290_x_at) / RFU MYO3A (11730013_a_at) / Fold change /veh MYO3A (11730013_a_at) / RFU EBF3 (11725865_a_at) / Fold change /veh EBF3 (11725865_a_at) / RFU CAMK2N1 (11719241_x_at) / Fold change /veh CAMK2N1 (11719241_x_at) / RFU C5orf56 (11738088_a_at) / Fold change /veh C5orf56 (11738088_a_at) / RFU OLFML3 (11715873_a_at) / Fold change /veh OLFML3 (11715873_a_at) / RFU LOC100653217 /// NTM (11731650_a_at) / Fold change /veh LOC100653217 /// NTM (11731650_a_at) / RFU MAPK11 (11762145_a_at) / Fold change /veh MAPK11 (11762145_a_at) / RFU FIZ1 (11724087_x_at) / Fold change /veh FIZ1 (11724087_x_at) / RFU OASL (11726364_x_at) / Fold change /veh OASL (11726364_x_at) / RFU SOX15 (11748057_x_at) / Fold change /veh SOX15 (11748057_x_at) / RFU CD79A (11719716_a_at) / Fold change /veh CD79A (11719716_a_at) / RFU HIST1H1D (11736915_at) / Fold change /veh HIST1H1D (11736915_at) / RFU CASKIN2 (11723855_a_at) / Fold change /veh CASKIN2 (11723855_a_at) / RFU LOC730098 (11760151_x_at) / Fold change /veh LOC730098 (11760151_x_at) / RFU OR4N2 (11742367_at) / Fold change /veh OR4N2 (11742367_at) / RFU PRRT2 (11749266_a_at) / Fold change /veh PRRT2 (11749266_a_at) / RFU SNX32 (11753110_a_at) / Fold change /veh SNX32 (11753110_a_at) / RFU CDHR5 (11726645_a_at) / Fold change /veh CDHR5 (11726645_a_at) / RFU RCAN1 (11760418_a_at) / Fold change /veh RCAN1 (11760418_a_at) / RFU FAM167A (11723789_a_at) / Fold change /veh FAM167A (11723789_a_at) / RFU FAM26E (11764081_at) / Fold change /veh FAM26E (11764081_at) / RFU ISYNA1 (11749810_s_at) / Fold change /veh ISYNA1 (11749810_s_at) / RFU ACY1 (11761880_at) / Fold change /veh ACY1 (11761880_at) / RFU 11764098_at / Fold change /veh 11764098_at / RFU SAMD14 (11745864_x_at) / Fold change /veh SAMD14 (11745864_x_at) / RFU NPB (11741838_a_at) / Fold change /veh NPB (11741838_a_at) / RFU TMPRSS6 (11731388_a_at) / Fold change /veh TMPRSS6 (11731388_a_at) / RFU KRTAP10-2 (11738614_at) / Fold change /veh KRTAP10-2 (11738614_at) / RFU ARHGAP8 /// PRR5-ARHGAP8 (11727945_x_at) / Fold change /veh ARHGAP8 /// PRR5-ARHGAP8 (11727945_x_at) / RFU KRTAP5-7 /// NADSYN1 (11734609_at) / Fold change /veh KRTAP5-7 /// NADSYN1 (11734609_at) / RFU RASL12 (11751679_a_at) / Fold change /veh RASL12 (11751679_a_at) / RFU CDKN2B (11736163_a_at) / Fold change /veh CDKN2B (11736163_a_at) / RFU PRF1 (11729649_at) / Fold change /veh PRF1 (11729649_at) / RFU, ZNF638 /// ZNF638-IT1 / Fold change vs veh, ZNF638 /// ZNF638-IT1 / RFU, PANK3 / Fold change vs veh, PANK3 / RFU, SH3YL1 / Fold change vs veh, SH3YL1 / RFU, ZEB2 / Fold change vs veh, ZEB2 / RFU, NRIP1 / Fold change vs veh, NRIP1 / RFU, PTTG1IP / Fold change vs veh, PTTG1IP / RFU, CAPN2 / Fold change vs veh, CAPN2 / RFU, MED14 / Fold change vs veh, MED14 / RFU, SNORA58 / Fold change vs veh, SNORA58 / RFU, C1orf63 / Fold change vs veh, C1orf63 / RFU, LRRFIP1 / Fold change vs veh, LRRFIP1 / RFU, NDUFAF7 / Fold change vs veh, NDUFAF7 / RFU, SLC12A2 / Fold change vs veh, SLC12A2 / RFU, IBTK / Fold change vs veh, IBTK / RFU, ESF1 / Fold change vs veh, ESF1 / Fold change vs veh, TMEM50B / RFU, TAOK1 / Fold change vs veh, TAOK1 / RFU, ACBD3 / Fold change vs veh, ACBD3 / RFU, TMA16 / Fold change vs veh, TMA16 / RFU, RWDD3 / Fold change vs veh, RWDD3 / RFU, BCAT1 / Fold change vs veh, BCAT1 / RFU, EDEM3 / Fold change vs veh, EDEM3 / RFU, TMEM33 / Fold change vs veh, TMEM33 / RFU, WDR75 / Fold change vs veh, WDR75 / RFU, AHCTF1 / Fold change vs veh, AHCTF1 / RFU, TFRC / Fold change vs veh, TFRC / RFU, ZDHHC17 / Fold change vs veh, ZDHHC17 / RFU, NOM1 / Fold change vs veh, NOM1 / RFU, ARL8B / Fold change vs veh, ARL8B / RFU, ZBTB11 / Fold change vs veh, ZBTB11 / RFU, TAMM41 / Fold change vs veh, TAMM41 / RFU, KIAA1704 /// LOC100996395 / Fold change vs veh, KIAA1704 /// LOC100996395 / RFU, ING1 / Fold change vs veh, ING1 / RFU, TRMT61B / Fold change vs veh, TRMT61B / RFU, FUBP3 / Fold change vs veh, FUBP3 / RFU, TP53 / Fold change vs veh, TP53 / RFU, TNKS2 / Fold change vs veh, TNKS2 / RFU, ZFP14 / Fold change vs veh, ZFP14 / RFU, ACTR2 / Fold change vs veh, ACTR2 / RFU, PPP3R1 / Fold change vs veh, PPP3R1 / RFU, PIK3R1 / Fold change vs veh, PIK3R1 / RFU, HNRNPA1 / Fold change vs veh, HNRNPA1 / RFU, RNF170 / Fold change vs veh, RNF170 / RFU, ZNF28 / Fold change vs veh, ZNF28 / RFU, RNGTT / Fold change vs veh, RNGTT / RFU, OGT / Fold change vs veh, OGT / RFU, BRD1 / Fold change vs veh, BRD1 / RFU, MARS / Fold change vs veh, MARS / RFU, ZNF655 / Fold change vs veh, ZNF655 / RFU, FAHD1 / Fold change vs veh, FAHD1 / RFU, BDP1 / Fold change vs veh, BDP1 / RFU, LRRCC1 / Fold change vs veh, LRRCC1 / RFU, ARID1A / Fold change vs veh, ARID1A / RFU, ZNF146 / Fold change vs veh, ZNF146 / RFU, ZNF330 / Fold change vs veh, ZNF330 / RFU, GPN3 / Fold change vs veh, GPN3 / RFU, C9orf123 / Fold change vs veh, C9orf123 / RFU, N4BP2L2 / Fold change vs veh, N4BP2L2 / RFU, ARFIP1 / Fold change vs veh, ARFIP1 / RFU, FAM179B / Fold change vs veh, FAM179B / RFU, BCL10 / Fold change vs veh, BCL10 / RFU, UHRF1BP1L / Fold change vs veh, UHRF1BP1L / RFU, BET1 / Fold change vs veh, BET1 / RFU, CNOT2 / Fold change vs veh, CNOT2 / RFU, ZNF268 / Fold change vs veh, ZNF268 / Fold change vs veh, ZNF507 / RFU, DGCR2 / Fold change vs veh, DGCR2 / RFU, WDSUB1 / Fold change vs veh, WDSUB1 / Fold change vs veh, HSP90B1 /// MIR3652 / RFU, ADSS / Fold change vs veh, ADSS / RFU, GK / Fold change vs veh, GK / RFU, ZNF148 / Fold change vs veh, ZNF148 / RFU, TAF9 / Fold change vs veh, TAF9 / RFU, SLC1A5 / Fold change vs veh, SLC1A5 / RFU, SLMO2 / Fold change vs veh, SLMO2 / RFU, ABCC4 / Fold change vs veh, ABCC4 / RFU, LOC101060439 /// RAP1B / Fold change vs veh, LOC101060439 /// RAP1B / RFU, RFX7 / Fold change vs veh, RFX7 / RFU, GTPBP10 / Fold change vs veh, GTPBP10 / RFU, CNEP1R1 / Fold change vs veh, CNEP1R1 / RFU, BIVM-ERCC5 /// ERCC5 / Fold change vs veh, BIVM-ERCC5 /// ERCC5 / RFU, ILF3 / Fold change vs veh, ILF3 / RFU 11762660_at / Fold change /veh 11762660_at / RFU VCAN (11757783_s_at) / Fold change /veh VCAN (11757783_s_at) / RFU DDX43 (11728927_at) / Fold change /veh DDX43 (11728927_at) / RFU KRT8 (11758188_x_at) / Fold change /veh KRT8 (11758188_x_at) / RFU NKD1 (11759106_at) / Fold change /veh NKD1 (11759106_at) / RFU SRD5A1 (11742802_a_at) / Fold change /veh SRD5A1 (11742802_a_at) / RFU TPSAB1 /// TPSB2 (11721975_s_at) / Fold change /veh TPSAB1 /// TPSB2 (11721975_s_at) / RFU GSTM3 (11746129_a_at) / Fold change /veh GSTM3 (11746129_a_at) / RFU IL23R (11737362_x_at) / Fold change /veh IL23R (11737362_x_at) / RFU TMEM51 (11727254_a_at) / Fold change /veh TMEM51 (11727254_a_at) / RFU PIWIL2 (11732686_x_at) / Fold change /veh PIWIL2 (11732686_x_at) / RFU ORM1 (11744905_x_at) / Fold change /veh ORM1 (11744905_x_at) / RFU CCDC152 (11743942_at) / Fold change /veh CCDC152 (11743942_at) / RFU ECM1 (11717891_a_at) / Fold change /veh ECM1 (11717891_a_at) / RFU IL23R (11748794_a_at) / Fold change /veh IL23R (11748794_a_at) / RFU TNFAIP8L3 (11732012_x_at) / Fold change /veh TNFAIP8L3 (11732012_x_at) / RFU MBOAT4 (11741988_at) / Fold change /veh MBOAT4 (11741988_at) / RFU 11764193_at / Fold change /veh 11764193_at / RFU TMEM53 (11763286_at) / Fold change /veh TMEM53 (11763286_at) / RFU MAGEB2 (11727129_at) / Fold change /veh MAGEB2 (11727129_at) / RFU TMEM200A (11744735_a_at) / Fold change /veh TMEM200A (11744735_a_at) / RFU CCDC152 (11751479_a_at) / Fold change /veh CCDC152 (11751479_a_at) / RFU FAM211A (11726209_a_at) / Fold change /veh FAM211A (11726209_a_at) / RFU RGS16 (11746705_a_at) / Fold change /veh RGS16 (11746705_a_at) / RFU VCAN (11755009_s_at) / Fold change /veh VCAN (11755009_s_at) / RFU RHOB (11743442_s_at) / Fold change /veh RHOB (11743442_s_at) / RFU RGS16 (11720943_a_at) / Fold change /veh RGS16 (11720943_a_at) / RFU RGS16 (11720944_at) / Fold change /veh RGS16 (11720944_at) / RFU, VPS4B / Fold change vs veh, VPS4B / RFU, CREB1 / Fold change vs veh, CREB1 / RFU, DNAJC13 / Fold change vs veh, DNAJC13 / RFU, GNAQ / Fold change vs veh, GNAQ / RFU, CDK5R1 / Fold change vs veh, CDK5R1 / RFU, ZRANB3 / Fold change vs veh, ZRANB3 / RFU, CUL4A / Fold change vs veh, CUL4A / RFU, CCNY / Fold change vs veh, CCNY / RFU, UFL1 / Fold change vs veh, UFL1 / RFU, COG3 / Fold change vs veh, COG3 / RFU, DIAPH2 / Fold change vs veh, DIAPH2 / RFU, SKA2 / Fold change vs veh, SKA2 / RFU, AFF3 / Fold change vs veh, AFF3 / RFU, LMF1 / Fold change vs veh, LMF1 / RFU, IPO11 / Fold change vs veh, IPO11 / RFU, DFFB / Fold change vs veh, DFFB / RFU, FOXP1 / Fold change vs veh, FOXP1 / RFU, CARD8 / Fold change vs veh, CARD8 / RFU, STRN3 / Fold change vs veh, STRN3 / RFU, ADK / Fold change vs veh, ADK / RFU, RASSF2 / Fold change vs veh, RASSF2 / RFU, WIPF1 / Fold change vs veh, WIPF1 / RFU, LARP1B / Fold change vs veh, LARP1B / RFU, RASA1 / Fold change vs veh, RASA1 / RFU, RB1 / Fold change vs veh, RB1 / RFU, PPFIA1 / Fold change vs veh, PPFIA1 / RFU, MAT2A / Fold change vs veh, MAT2A / RFU, CCT5 / Fold change vs veh, CCT5 / RFU, WDR92 / Fold change vs veh, WDR92 / RFU, CUX1 / Fold change vs veh, CUX1 / RFU, TTC7A / Fold change vs veh, TTC7A / RFU, TMEM135 / Fold change vs veh, TMEM135 / RFU, DEPTOR / Fold change vs veh, DEPTOR / RFU, CPM / Fold change vs veh, CPM / RFU, DNAJB6 / Fold change vs veh, DNAJB6 / RFU, CACNA2D3 / Fold change vs veh, CACNA2D3 / RFU, DTX4 / Fold change vs veh, DTX4 / RFU, TFCP2 / Fold change vs veh, TFCP2 / RFU, GMCL1 /// GMCL1P1 / Fold change vs veh, GMCL1 /// GMCL1P1 / RFU, AEBP2 / Fold change vs veh, AEBP2 / RFU, SNHG1 /// SNORD22 /// SNORD25 /// SNORD26 /// SNORD27 /// SNORD28 /// SNORD29 /// SNORD31 / Fold change vs veh, SNHG1 /// SNORD22 /// SNORD25 /// SNORD26 /// SNORD27 /// SNORD28 /// SNORD29 /// SNORD31 / Fold change (Aza/veh), C12orf56 (ProbeSet 11735607_a_at) / Fold change (ACY-1035/veh), C12orf56 (ProbeSet 11735607_a_at) / Fold change (Aza/veh), FGFR1OP (ProbeSet 11751329_s_at) / Fold change (ACY-1035/veh), FGFR1OP (ProbeSet 11751329_s_at) / Fold change (Aza/veh), VPS36 (ProbeSet 11739960_a_at) / Fold change (ACY-1035/veh), VPS36 (ProbeSet 11739960_a_at) / RFU SYPL1 (11715823_x_at) / Fold change /veh SYPL1 (11715823_x_at) / RFU IGFBP7 (11715501_s_at) / Fold change /veh IGFBP7 (11715501_s_at) / RFU REEP3 (11722064_at) / Fold change /veh REEP3 (11722064_at) / RFU IGLL1 (11728026_x_at) / Fold change /veh IGLL1 (11728026_x_at): dose or concentration left out as unconfirmed
Details: ProbeSet 11739263_x_at; LIST D

## Nc1ncn([C@@H]2O[C@H](CO)[C@@H](O)[C@H]2O)c(=O)n1 [azacitidine]
  RFU, VPS4B: 59.01 RFU
